We go through 15 compounds from patent US10472341B2, “Bicyclic tetrahydrothiazepine derivatives useful for the treatment of neoplastic and/or infectious diseases” (APEIRON BIOLOGICS AG, priority 2015, dated 2019).

Several values for one entry are separate records, joined by “and”; a condition that tells them apart may be missing. Equal values may be shown once. Where a name gives a salt, the structure may show the parent alone. Read-outs that look alike come from different tables or passages of the source. Bounds are passed on as bounds.

Assay [1] has as its system CD4 T cells. Kind of assay: CD69 expression on aCD3/aCD28 stimulated isolated human CD4 T cells (flow cytometry). Format: cell-based. To be noted: 24 h after TCR stimulation, read-out: Activity Class CD69 (CD4). The method, then: (§1) Isolated T cells were plated in Xvivo medium at 1.5*10 ^5 cells per in 96 well culture plates and TCR-stimulated with anti-CD3/28 mAbs in the presence of compound as indicated. Cytokine production was determined at 24 h or 48 h following TCR stimulation in cell culture supernatants using commercially available ELISA kits (BD and eBioscience) as recommended by the manufacturer. T cell proliferation and CD25 expression (CD25-PC5 reagent purchased from Beckman Coulter) was determined by flow cytometry (Beckman-Coulter FC500) and analysed with Kaluza Software. For measurement of CD69 expression, isolated CD4 and CD8 T cells were plated in Xvivo medium at […] per in 96 well culture plates and TCR-stimulated with anti-CD3/28 mAbs in the presence of compound. CD69 expression was determined at 24 h following TCR stimulation by flow cytometry (CD4eF450, CD8APCeF780 and CD69-PC7 reagent purchased from eBioscience) and analysed with Kaluza Software.
(§2) For measurement of CD69 expression, isolated CD4 and CD8 T cells were plated in Xvivo medium at 80000 cells per in 96 well culture plates and TCR-stimulated with anti-CD3/28 mAbs in the presence of compound. CD69 expression was determined at 24 h following TCR stimulation by flow cytometry (CD4eF450, CD8APCeF780 and CD69-PC7 reagent purchased from eBioscience) and analysed with Kaluza Software.
(A flow cytometer gives signals particle by particle.)

Assay [2] relates to aCD3/aCD28-stimulated human PBMCs. Kind of assay: Cytokine production in aCD3/aCD28 stimulated human PBMCs. To be noted: PBMC, 18 h. Format: cell-based. Put shortly:
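Ficoll-isolated human PBMCs at 1e6 cells/mL in X-Vivo15, stimulated with soluble anti-CD3/CD28 (OKT3 and 28.2, 1 μg/mL each) plus compound for 18 h at 37° C. Supernatant cytokines quantified by MSD or HTRF.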

Assay [3] has as its system CD8 T cells. Kind of assay: CD69 expression on aCD3/aCD28 stimulated isolated human CD8 T cells (flow cytometry). Format: cell-based. As to conditions: T-cell, 24 h after TCR stimulation, read-out: Activity Class CD69 (CD8). The method, then:
as §1, §2

Assay [4] has as its system CD8 T cells & M21 tumor cells. As to the kind of experiment: CD8 T cells from M21-prestimulated PBMCs restimulated with M21 tumor cells, with or without PD-1 blockade. The format is cell-based, human. To be noted: for Average Granzyme B / Average IFN-g / Average IL-2 / Average Number of living M21 tumor cells: no cpd. The method, then: For experiments investigating effects of PD-1 blockade, PBMCs were preincubated with 1 h UV-irradiated M21 tumor cells (50000 tumor cells per 1 Mill. PBMCs) for 14 days. […] Compounds and anti-PD-1 antibody (Nivolumab) or control antibody without direct effects on CD8 T cells (Ipilimumab) were added where indicated.
[…] Example 107, no antibody (no Ig), anti-PD-1 antibody (Nivolumab) or control antibody without direct effects on CD8 T cells (Ipilimumab) were included where indicated.

Assay [5] relates to aCD3/aCD28-stimulated human CD4+-T-cells. Kind of assay: IL-2 production and activation markers in aCD3/aCD28 stimulated isolated human CD4+-T-cells. The format is cell-based. To be noted: IL-2 production at 3 μM compound. Put shortly:
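CD4+ T cells isolated from buffy-coat PBMCs by microbeads were plated in Xvivo medium (1.5*10^5 cells/well) and stimulated with anti-CD3/28 mAbs plus compound. IL-2 measured by ELISA in supernatants at 24 h or 48 h; CD25 and proliferation by flow cytometry, CD69 at 24 h. Activity classes based on IL-2 at 3 μM compound.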

Setting [6] is: enhancement of IFN-γ production, read-out: Activity Class IFN-γ.
[7] abbreviates: enhancement of IL-2 production, read-out: Activity Class IL-2.

For `N[C@H]1CS(=O)(=O)c2cc(F)c(C(=O)NC3CC3(F)F)cc2N(Cc2ccc(F)cc2)C1=O` (stereo partly drawn) [Example 130, (3R)-3-amino-N-(2,2-difluorocyclopropyl)-8-fluoro-5-[(4-fluorophenyl)methyl]-1,1,4-trioxo-2,3,4,5-tetrahydro-1λ^6,5-benzothiazepine-7-carboxamide hydrochloride], the EC50 in assay [1] is above 5.01 µM; in assay [2] (setting [6]) it was 1.58 to 5.01 µM; in assay [2] (setting [7]), above 5.01 µM; in assay [3] it was 1.58 to 5.01 µM.
Take `N[C@H]1CS(=O)(=O)c2ccc(C(=O)NCC3(F)CCOCC3)cc2N(Cc2ccc(Cl)cc2)C1=O` [Example 165, (3R)-3-amino-5-[(4-chlorophenyl)methyl]-N-[(4-fluorooxan-4-yl)methyl]-1,1,4-trioxo-2,3,4,5-tetrahydro-1λ^6,5-benzothiazepine-7-carboxamide]: the EC50 in assay [1] is below 1.58 µM; in assay [2] (setting [6]), below 1.58 µM; in assay [2] (setting [7]), 1.58 to 5.01 µM; in assay [3], below 1.58 µM.
Take `CCCCNC(=O)c1cc2c(cc1F)SC[C@H](N)C(=O)N2Cc1ccc(F)cc1` [Example 131, (3R)-3-amino-N-butyl-8-fluoro-5-[(4-fluorophenyl)methyl]-4-oxo-2,3,4,5-tetrahydro-1,5-benzothiazepine-7-carboxamide hydrochloride]: the EC50 was above 5.01 µM in assay [1], 1.58 to 5.01 µM in assay [2] (setting [6]), above 5.01 µM in assay [2] (setting [7]) and above 5.01 µM in assay [3].
For `N[C@H]1CS(=O)(=O)c2ccc(C(=O)NCCN3CCOCC3)cc2N(Cc2ccc(Cl)cc2)C1=O` [Example 176, (3R)-3-amino-5-[(4-chlorophenyl)methyl]-N-[2-(morpholin-4-yl)ethyl]-1,1,4-trioxo-2,3,4,5-tetrahydro-1λ^6,5-benzothiazepine-7-carboxamide], the EC50 in assay [1], in assay [2] (setting [6]), in assay [2] (setting [7]) and in assay [3] was above 5.01 µM throughout.
In the case of `N[C@H]1CS(=O)(=O)c2ccc(C(=O)NC3CC3(F)F)cc2N(Cc2ccc(Br)cc2)C1=O` (stereo partly drawn) [Example 180, (3R)-3-amino-5-[(4-bromophenyl)methyl]-N-(2,2-difluorocyclopropyl)-1,1,4-trioxo-2,3,4,5-tetrahydro-1λ^6,5-benzothiazepine-7-carboxamide], the EC50 in assay [1], in assay [2] (setting [6]), in assay [2] (setting [7]) and in assay [3] was below 1.58 µM in each case.
On to Ipilimumab, for which, in assay [4] (Ipilimumab alone), the “Average Granzyme B” value came out at 0.612 ng/mL; the “Average IFN-g” value is 0.000 ng/mL; the “Average IL-2” value was found to be 0.024 ng/mL; the “Average Number of living M21 tumor cells” value was 22648 and 25130. Besides, the “synergistic enhancement of cytokine production with example 107” value in assay [4] (control antibody not targeting CD8 T cells) is on record as “No such effects were observed”.
Take Nivolumab: in assay [4] (Nivolumab alone), the “reduction in viable tumor cells” value is “not able to cause a significant reduction in viable tumor cells”, the “Average Granzyme B” value was 1.758 ng/mL, the “Average IFN-g” value was 0.014 ng/mL and the “Average IL-2” value is 0.046 ng/mL. The “Average Number of living M21 tumor cells” value in assay [4] (Nivolumab alone) was 20344 and 22655. For the same compound, the cytokine secretion entry in assay [4] (PD-1 blockade alone, CD8 T cells & M21 (expresses PD-L1)) is on record as “also enhanced cytokine secretion”.
Turning to `C[C@@H](NC(=O)c1ccc2c(c1)N(Cc1ccc(Cl)cc1)C(=O)[C@@H](N)CS2)c1ccc(F)cc1.Cl` [Example 38, (3R)-3-amino-5-[(4-chlorophenyl)methyl]-N-[(1R)-1-(4-fluorophenyl)ethyl]-4-oxo-2,3,4,5-tetrahydro-1,5-benzothiazepine-7-carboxamide hydrochloride], the EC50 in assay [2] (setting [6]) and in assay [2] (setting [7]) was 1.58 to 5.01 µM throughout. Also, the “Activity Class CD4+” value in assay [5] is “C (IL-2 production at 3 μM compound concentration between 2-fold increase as compared to mean IL-2 production of stimulated cells in the absence of compounds and <2 ng/mL)”.
With `CCCCCCCNC(=O)c1cc2c(cc1F)S(=O)(=O)C[C@H](N)C(=O)N2Cc1ccc(Cl)cc1.Cl` [Example 104, (3R)-3-amino-5-[(4-chlorophenyl)methyl]-8-fluoro-N-heptyl-1,1,4-trioxo-2,3,4,5-tetrahydro-1λ^6,5-benzothiazepine-7-carboxamide hydrochloride], the EC50 in assay [2] (setting [6]) and in assay [2] (setting [7]) was below 1.58 µM in each case. In addition, in assay [5], the “Activity Class CD4+” value is “A (IL-2 production at 3 μM compound concentration >10 ng/mL)”.
Regarding `C[C@H]1Sc2ccc(C(=O)NCCCC(F)(F)F)cc2N(Cc2ccc(Cl)cc2)C(=O)[C@H]1N.Cl` [Example 51, (2R,3R)-3-amino-5-[(4-chlorophenyl)methyl]-2-methyl-4-oxo-N-(4,4,4-trifluorobutyl)-2,3,4,5-tetrahydro-1,5-benzothiazepine-7-carboxamide hydrochloride], the EC50 in assay [2] (setting [6]) was below 1.58 µM; in assay [2] (setting [7]) it was 1.58 to 5.01 µM. Besides, in assay [5], the “Activity Class CD4+” value is “C (IL-2 production at 3 μM compound concentration between 2-fold increase as compared to mean IL-2 production of stimulated cells in the absence of compounds and <2 ng/mL)”.
Take `C[C@@H]1[C@H](N)C(=O)N(Cc2ccc(Cl)cc2)c2cc(C(=O)NC3CC3(F)F)ccc2S1(=O)=O.Cl` (stereo partly drawn) [Example 108, (2R,3R)-3-amino-5-[(4-chlorophenyl)methyl]-N-(2,2-difluorocyclopropyl)-2-methyl-1,1,4-trioxo-2,3,4,5-tetrahydro-1λ^6,5-benzothiazepine-7-carboxamide hydrochloride]: the EC50 in assay [2] (setting [6]) and in assay [2] (setting [7]) was above 5.01 µM in each case. Moreover, in assay [5], the “Activity Class CD4+” value is “C (IL-2 production at 3 μM compound concentration between 2-fold increase as compared to mean IL-2 production of stimulated cells in the absence of compounds and <2 ng/mL)”.
With `CCCCNC(=O)c1cc2c(cn1)S(=O)(=O)C[C@H](N)C(=O)N2Cc1ccc(Cl)cc1` [Example 183, (3R)-3-amino-N-butyl-1-[(4-chlorophenyl)methyl]-2,5,5-trioxo-1H,2H,3H,4H-5λ^6-pyrido[3,4-b][1,4]thiazepine-8-carboxamide hydrochloride], the EC50 in assay [2] (setting [6]) and in assay [2] (setting [7]) was above 5.01 µM each time. Also, in assay [5], the “Activity Class CD4+” value was “C (IL-2 production at 3 μM compound concentration between 2-fold increase as compared to mean IL-2 production of stimulated cells in the absence of compounds and <2 ng/mL)”.
Take `C[C@H](NC(=O)c1cc2c(cc1F)S(=O)(=O)C[C@H](N)C(=O)N2Cc1ccc(Cl)cc1)C(F)(F)F.Cl` [Example 94, (3R)-3-amino-5-[(4-chlorophenyl)methyl]-8-fluoro-1,1,4-trioxo-N-[(2S)-1,1,1-trifluoropropan-2-yl]-2,3,4,5-tetrahydro-1λ^6,5-benzothiazepine-7-carboxamide hydrochloride]: the EC50 was 1.58 to 5.01 µM in assay [2] (setting [6]) and above 5.01 µM in assay [2] (setting [7]). In assay [5], the “Activity Class CD4+” value is “C (IL-2 production at 3 μM compound concentration between 2-fold increase as compared to mean IL-2 production of stimulated cells in the absence of compounds and <2 ng/mL)”.
Regarding `Cl.N[C@H]1CSc2ccc(C(=O)NCc3ccc(F)cc3)cc2N(Cc2ccc(OC(F)(F)F)cc2)C1=O` [Example 31, (3R)-3-amino-N-[(4-fluorophenyl)methyl]-4-oxo-5-{[4-(trifluoromethoxy)phenyl]-methyl}-2,3,4,5-tetrahydro-1,5-benzothiazepine-7-carboxamide hydrochloride], the EC50 in assay [2] (setting [6]) and in assay [2] (setting [7]) was below 1.58 µM in each case. Besides, the “Activity Class CD4+” value in assay [5] is listed as “B (IL-2 production at 3 μM compound concentration between 2-10 ng/mL)”.
For `CC(NC(=O)c1ccc2c(c1)N(Cc1ccc(Cl)cc1)C(=O)[C@@H](N)CS2)c1ccc(F)cc1.Cl` (stereo partly drawn) [Example 34, (3R)-3-amino-5-[(4-chlorophenyl)methyl]-N-[1-(4-fluorophenyl)ethyl]-4-oxo-2,3,4,5-tetrahydro-1,5-benzothiazepine-7-carboxamide hydrochloride], the EC50 in assay [2] (setting [6]) and in assay [2] (setting [7]) was 1.58 to 5.01 µM in each case. For the same compound, the “Activity Class CD4+” value in assay [5] is “C (IL-2 production at 3 μM compound concentration between 2-fold increase as compared to mean IL-2 production of stimulated cells in the absence of compounds and <2 ng/mL)”.
